Experimental data from publication PMC12015293 (Communications Biology, 2025).

System: osteoclastogenesis of bone marrow-derived monocyte/macrophage precursor cells (BMMs)
Test: RANKL-induced osteoclast differentiation of BMMs
Assay type: cell-based, mouse (C57BL/6)
Settings: 10 μM, late stage

C[S+]([O-])c1ccc(-c2nc(-c3ccncc3)c(-c3ccc(F)cc3)[nH]2)cc1 (stereo not shown) [SB203580]
effect of p38 inhibitor on osteoclastogenesis: also inhibited osteoclastogenesis
